Values quoted from earlier work, collected in article PMC7607171, “Optimized low‐dose combinatorial drug treatment boosts selectivity and efficacy of colorectal carcinoma treatment” (Molecular Oncology, 2020).
Like-named read-outs stand apart in the source and are kept apart here.

Conditions: 0-24h, 400 mg/kg once daily, oral, cited from earlier work

**Q.** For `Cn1c(=O)n(-c2ccc(C(C)(C)C#N)cc2)c2c3cc(-c4cnc5ccccc5c4)ccc3ncc21` [BEZ-235], which AUC (ref 16) is on record?
**A.** Its AUC is 741.3 ng·h/mL.

**Q.** And the AUC (ref 17)?
**A.** Its AUC is 1404.4 ng·h/mL.
